According to patent publication US7345089B2, “Microbial method of making equol-containing composition and product made” (Otsuka Pharmaceutical Co., Ltd., priority 1997, dated 2008):

What was measured:
[1] = Urinary excretion of isoflavonoids after single ingestion of soy milk in healthy adult volunteers; details: healthy adult volunteers 25-33 years of age
[2] = Determination of urinary excretions of isoflavonoids in perimenopausal women (survey)
Method: To accomplish the above object, the inventors first conducted a dietary survey, determination of urinary excretions of isoflavonoids, and a questionnaire survey about menopausal syndrome (unidentified clinical syndrome) in perimenopausal women in a broad geographical area including urban communities.
Furthermore, women with paramenia and those within 5 years of the menopause being taken together as menopausal subjects, a questionnaire survey was conducted using 17 items which are in routine use in the diagnosis of menopausal syndrome [17 items as a modification of Kupperman menopausal index (Kupperman H. S., et al., (1953), J. Clin. Endocrinol. Metabol., 13, 688-703), i.e. 1. hot flushes, 2. perspiration, 3. local sensation of cold, 4. shortness of breath, 5. numbness of limbs, 6. hypesthesia, 7. difficulty in falling asleep, 8. fitful sleep, 9. irritability, 10. nervousness, 11. melancholy, 12. vertigo, nausea, 13. weakness(fatigue), 14. stiff shoulders, pain in joints, muscular pain, 15. headache, 16. palpitation, 17. tingling sensation] and the simplified menopausal index (SMI) was calculated. With subjects with SMI values not less than 20 being taken as a group of high climacteric symptoms and those with SMI values not greater than 19 as a group of low climacteric symptoms, the amount of intake of isoflavonoids and the urinary excretion of isoflavonoids were respectively compared between the groups.

[3] = human, in vivo
[4] = SMI not less than 20 vs SMI not greater than 19, equol p<0.01

Row | SMILES | urinary excretions after single ingestion of soy milk [1] | urinary excretions, group of high climacteric symptoms vs group of low climacteric symptoms [2, 4] | average urinary excretions of isoflavonoids ([2]; female, human, in vivo) [µmol/day] | equol in urine when intake of soy milk increased two-fold [3] | average excretions of equol (urinary) ([2]; in vivo) [µmol/day] | subjects in whom detected in urine ([2]; in vivo) | urinary excretions, group of high climacteric symptoms vs group of low climacteric symptoms ([2]; in vivo) | subjects in whom detected in urine ([2]; of the 95 subjects, number (%)) | average urinary excretions of isoflavonoids ([2]; women aged between 40 and 60) [µmol/day]
1 | O=c1c(-c2ccc(O)cc2)coc2cc(O)ccc12 [daidzein] | increased in a dose-related fashion | no intergroup difference | 19.6 |  |  |  |  |  | 
2 | Oc1ccc(C2COc3cc(O)ccc3C2)cc1 (centres unmarked) [equol] |  |  |  | not detected | 11.9 | 46 (51.6%) | significantly low |  | 
3 | O=c1c(-c2ccc(O)cc2)coc2cc(O)cc(O)c12 [genistein] | increased in a dose-related fashion | no intergroup difference |  |  |  |  |  | detected in all the subjects | 10.0
